Measurements reported in ChEMBL document CHEMBL4483862, “Open-source discovery of chemical leads for next-generation chemoprotective antimalarials” (2018).

Test system: Plasmodium berghei
Assay: Luciferase/luciferin-expressing antifolate-resistant parasites were used to infect a culture of HepG2 cells that were pre-incubated with compounds. Infected hepatocytes emit light due to the luciferase reaction. Assay results are presented as the percent inhibition of light emission compared to control. […]
Assay type: functional
Settings: sporozoite; for IC50: read-out: LUCIFERASE INFECTION ASSAY - IC50; for IC90: read-out: LUCIFERASE INFECTION ASSAY - IC90

Compound: CCC1(c2ccc(F)cc2)NC(=O)N(CC(=O)Nc2ccc(-c3nc4ccc(C)cc4s3)cc2)C1=O (stereo not drawn)
- IC50: 9.87 µM
- IC90: > 10 µM

Compound: O=C(/C=C/c1ccc(N2CCCCC2)c([N+](=O)[O-])c1)c1ccc(O)cc1
- IC50: 9.61 µM
- IC90: > 10 µM

Compound: CC(C)N(Cc1ccccc1)C(=S)NC(=O)C1(C)CC1(Cl)Cl (stereo not drawn)
- IC50: > 10 µM
- IC90: > 10 µM

Compound: CCOC(=O)c1c(C)[nH]c(C)c1C(=O)COC(=O)c1c(OC)cccc1OC
- IC50: > 10 µM
- IC90: > 10 µM

Compound: CCc1cccc(CC)c1NC(=O)/C(C#N)=C/c1ccccc1C(F)(F)F
- IC50: 3.68 µM
- IC90: 4.5 µM

Compound: CCOCCCNC(=O)/C(C#N)=C/c1ccc(Cl)c([N+](=O)[O-])c1
- IC50: 5.19 µM
- IC90: 9.95 µM

Compound: Cc1cccc(NC(=O)c2ccc(Cl)c(S(=O)(=O)N3CCc4ccccc43)c2)n1
- IC50: > 10 µM
- IC90: > 10 µM

Compound: OC(CNCCc1ccc(Cl)cc1Cl)COc1ccccc1 (stereo not drawn)
- IC50: > 10 µM
- IC90: > 10 µM

Compound: CCc1cccc(NC(=O)C[n+]2c3n(c4ccc(C(F)(F)F)cc42)CCCCC3)c1
- IC50: 2.8 µM
- IC90: 8.61 µM

Compound: Cc1nc(NCc2ccco2)c2c(C)c(C)sc2n1
- IC50: 3.73 µM
- IC90: 4.47 µM

Compound: Cc1nn(-c2ccccc2)c(N2CCCC2)c1/C=N/O
- IC50: > 10 µM
- IC90: > 10 µM

Compound: Cc1nc(N/N=C/c2ccc(O)cc2)c2cnn(-c3ccccc3)c2n1
- IC50: > 10 µM
- IC90: > 10 µM

Compound: N#Cc1ccc(CN2CCN(Cc3nnc(C(=O)Nc4ccc(Cl)cc4)s3)CC2)cc1
- IC50: > 10 µM
- IC90: > 10 µM

Compound: O=C(Nc1cc(C(F)(F)F)ccc1Cl)C(Sc1nnc(Cc2cccs2)n1CCc1ccccc1)c1ccccc1 (stereo not drawn)
- IC50: 5.35 µM
- IC90: > 10 µM

Compound: Cc1cccc(C)c1/N=c1\scc(-c2cccc(Cl)c2)n1/N=C/C1CC=CCC1 (stereo not drawn)
- IC50: > 10 µM
- IC90: > 10 µM

Compound: Cc1nn(-c2ccccc2Cl)c2sc(C(=O)Nc3ccc(-c4nnc5n4CCCCC5)cc3)cc12
- IC50: > 10 µM
- IC90: > 10 µM

Compound: Cc1ccccc1C(=O)/C=c1\s/c(=C\c2ccc(O)cc2)c(=O)n1C
- IC50: > 10 µM
- IC90: > 10 µM

Compound: Cc1nccn1Cc1cccc(CNC(=O)/C=C/c2cccc(Cl)c2Cl)c1
- IC50: > 10 µM
- IC90: > 10 µM

Compound: Cc1ccc2c(c1)C1CN(C)CCC1N2C(=O)c1cc(-c2ccc(F)cc2)nc2ccccc12 (stereo not drawn)
- IC50: > 10 µM
- IC90: > 10 µM

Compound: Cc1cc(C)c(S(=O)(=O)Nc2cc3c(C(=O)Nc4ccccc4)c(C)oc3c3ccccc23)c(C)c1
- IC50: > 10 µM
- IC90: > 10 µM

Compound: COc1ccccc1-c1noc(CSc2nc3ccccc3c(=O)n2-c2ccc(C)cc2)n1
- IC50: > 10 µM
- IC90: > 10 µM

Compound: O=C1c2cc(Br)ccc2S(=O)(=O)N1CC(c1ccco1)N1CCCC1 (stereo not drawn)
- IC50: > 10 µM
- IC90: > 10 µM

Compound: Cc1c(C(=O)O)sc(S(=O)(=O)N2CCN(C(=O)C(C)(C)C)CC2)c1C(=O)O
- IC50: > 10 µM
- IC90: > 10 µM

Compound: CCOc1ccc(C=C(c2nc3ccccc3s2)c2nc3ccccc3s2)c(O)c1
- IC50: 6.72 µM
- IC90: > 10 µM

Compound: O=C(c1ccc2[nH]c3c(c2c1)CCCC3)N1CCN(Cc2nc(-c3cccs3)no2)CC1
- IC50: > 10 µM
- IC90: > 10 µM

Compound: CC1Sc2ccc(C(=O)Nc3ccnn3Cc3cccc(Cl)c3Cl)cc2NC1=O (stereo not drawn)
- IC50: > 10 µM
- IC90: > 10 µM

Compound: CCOc1cc(/C=C/C(=O)c2ccc(C)cc2)cc(Br)c1OCC(=O)N(C)C
- IC50: 3.4 µM
- IC90: 3.89 µM

Compound: Cc1coc(C)c1C(=O)/C=C/c1ccc2cccnc2c1
- IC50: 2.51 µM
- IC90: 2.69 µM

Compound: Cc1nn(CC(=O)NCCCN2c3ccccc3Sc3ccccc32)c(C)c1[N+](=O)[O-]
- IC50: > 10 µM
- IC90: > 10 µM

Compound: Cc1c(C(=O)Nc2ccc(N3CCN(C)CC3)nc2)cnn1-c1ccc(C(F)(F)F)cn1
- IC50: > 10 µM
- IC90: > 10 µM

Compound: CC(C)c1cc(C(=O)OCCCn2c(=O)[nH]c3ccccc32)c2cnn(C(C)C)c2n1
- IC50: > 10 µM
- IC90: > 10 µM

Compound: CCOc1ccc(/C=C2\CCCC3C2=NN(C(=O)C2(S(=O)(=O)c4ccccc4)CC2)C3c2ccc(OCC)cc2)cc1 (stereo not drawn)
- IC50: 5.63 µM
- IC90: > 10 µM

Compound: O=C(Cc1csc(-c2ccccn2)n1)Nc1sc2c(c1C(=O)NCc1ccccc1)CCCC2
- IC50: > 10 µM
- IC90: > 10 µM

Compound: COc1cc(/C=C2/C(=O)N(C)c3ccccc32)cc(OC)c1
- IC50: > 10 µM
- IC90: > 10 µM

Compound: CC(C)(C)c1ccc(-c2nnc(SCC(=O)N3CCc4ccccc4C3)n2Cc2ccccc2)cc1
- IC50: > 10 µM
- IC90: > 10 µM

Compound: CCc1ccccc1-n1c(SCCn2c(=O)oc3ccccc32)nc2ccccc2c1=O
- IC50: > 10 µM
- IC90: > 10 µM

Compound: CN1C(=O)/C(=C\c2ccccc2[N+](=O)[O-])c2ccccc21
- IC50: 9.31 µM
- IC90: > 10 µM

Compound: Cc1ccc2nc(NC(=O)c3cn(C)nc3-c3ccc4c(c3)OCCCO4)sc2c1
- IC50: > 10 µM
- IC90: > 10 µM

Compound: COc1ccccc1CNC(=O)NC(C)c1ccc(Cl)cc1Cl (stereo not drawn)
- IC50: > 10 µM
- IC90: > 10 µM

Compound: COc1ccc(/C=C2\CCCc3c2nc2ccccc2c3C(=O)OCc2cccc(C(F)(F)F)c2)cc1OC
- IC50: > 10 µM
- IC90: > 10 µM

Compound: Cc1ccc(S(=O)(=O)N(C)c2ccc(OCc3coc(-c4cccs4)n3)cc2)cc1
- IC50: > 10 µM
- IC90: > 10 µM

Compound: CC(=O)NCCc1ccc(C(=O)CSc2nccn2-c2ccc(Cl)cc2)s1
- IC50: > 10 µM
- IC90: > 10 µM

Compound: c1ccc(-c2csc3nc(-c4ccccn4)nc(Sc4nnc(-c5ccco5)o4)c23)cc1
- IC50: > 10 µM
- IC90: > 10 µM

Compound: O=C(OCC(=O)C12CC3CC(CC(C3)C1)C2)c1cc2ccccc2cc1O
- IC50: > 10 µM
- IC90: > 10 µM

Compound: Cc1cc(-c2nc3c(c(=O)[nH]c(=O)n3Cc3ccccc3)n2CC2CCCO2)cc(C)c1O (stereo not drawn)
- IC50: > 10 µM
- IC90: > 10 µM

Compound: O=C(/C=C/c1ccccc1[N+](=O)[O-])c1cccc(C(F)(F)F)c1
- IC50: 4.89 µM
- IC90: 5.08 µM

Compound: CCOC(=O)c1c(-c2ccccc2)oc2ccc(N(C(C)=O)S(=O)(=O)c3ccc4ccccc4c3)cc12
- IC50: 6.33 µM
- IC90: > 10 µM

Compound: O=C(Cc1nc(C23CC4CC(CC(C4)C2)C3)cs1)NCc1ccccc1
- IC50: > 10 µM
- IC90: > 10 µM

Compound: COc1ccc(OCCN2CCN(c3ccc(S(=O)(=O)NC(C)C)cn3)CC2)cc1
- IC50: > 10 µM
- IC90: > 10 µM

Compound: CCc1sc(C(=O)NNC(=O)CN2CCN(c3ccc([N+](=O)[O-])cc3)CC2)cc1C
- IC50: > 10 µM
- IC90: > 10 µM

Compound: Cn1c(N)c(C(=O)COC(=O)c2c3c(nc4ccccc24)/C(=C/c2ccc(O)cc2)CCC3)c(=O)n(C)c1=O
- IC50: 2.66 µM
- IC90: 6.45 µM

Compound: CCOC(=O)/C(=N\Nc1cc(C(F)(F)F)ccc1Cl)N1CCN(C(c2ccccc2)c2ccccc2)CC1
- IC50: 4.97 µM
- IC90: > 10 µM

Compound: CCn1c(=O)n(CCC(=O)N(CC2CCCO2)c2nc3ccccc3s2)c2ccccc21 (stereo not drawn)
- IC50: > 10 µM
- IC90: > 10 µM

Compound: CCOC(=O)c1c(NC(=O)Cn2ncc(Cl)c(Cl)c2=O)sc2c1CCC(C)C2 (stereo not drawn)
- IC50: > 10 µM
- IC90: > 10 µM

Compound: CCc1ccc(C(=O)C(C)Sc2ccc(S(=O)(=O)N3CCOCC3)cn2)cc1 (stereo not drawn)
- IC50: > 10 µM
- IC90: > 10 µM

Compound: O=C(Nc1sc2c(c1CN1CCN(C(=O)c3ccco3)CC1)CCCC2)c1ccccc1F
- IC50: > 10 µM
- IC90: > 10 µM

Compound: CCn1ncc2c(C(=O)Nc3nc(-c4ccc(OC)cc4OC)cs3)cc(-c3cccs3)nc21
- IC50: > 10 µM
- IC90: > 10 µM

Compound: CCOc1ccc(Oc2ccc(S(=O)(=O)N(C)C3CCN(CC)CC3)cc2)cc1
- IC50: > 10 µM
- IC90: > 10 µM

Compound: CC(=O)NCc1ccc(-c2csc(NC(=O)c3cc(-c4ccco4)nc4c3c(C)nn4C)n2)cc1
- IC50: > 10 µM
- IC90: > 10 µM

Compound: CN(Cc1ccc(-c2ccc(Cl)cc2)o1)Cc1nnc2n(C)c(=O)c3ccccc3n12
- IC50: > 10 µM
- IC90: > 10 µM

Compound: COC(=O)c1ccccc1NC(=O)/C=C/c1ccc(N2CCCS2(=O)=O)cc1
- IC50: 2.97 µM
- IC90: 6.74 µM

Compound: CCOC(=O)c1nc(N(CCc2ccccc2)C(=O)c2cccnc2SC)sc1C
- IC50: > 10 µM
- IC90: > 10 µM

Compound: COC(=O)c1occc1/C=C/C(=O)c1ccc2c(c1)CCC2
- IC50: > 10 µM
- IC90: > 10 µM

Compound: Cc1cc(=O)n2nc(CSc3ncc(-c4ccccc4)n3-c3c(C)cccc3C)sc2n1
- IC50: 2.38 µM
- IC90: 5.16 µM

Compound: Cc1cc(C(=O)N(C(=O)NC2CCCCC2)C2CCCCC2)c(C)n1-c1ccccc1
- IC50: 1.12 µM
- IC90: 8.67 µM

Compound: COc1ccccc1C(=O)OC(c1ccc(NC(=O)c2ccc(OC(F)F)cc2)cc1)(C(F)(F)F)C(F)(F)F
- IC50: 3.51 µM
- IC90: 4.33 µM

Compound: CCOC(=O)c1cnn(-c2ccc(NC(=O)COc3ccccc3C#N)cc2)c1C(F)(F)F
- IC50: > 10 µM
- IC90: > 10 µM

Compound: CCOC(=O)c1cnn(-c2cccc(NC(=O)c3ccc(SC)c([N+](=O)[O-])c3)c2)c1C
- IC50: > 10 µM
- IC90: > 10 µM

Compound: Cc1cc(=O)n2nc(CSc3nc4ccccc4c(=O)n3C3CCCC3)sc2n1
- IC50: > 10 µM
- IC90: > 10 µM

Compound: Cc1sc(NC(=O)c2ccco2)c(C(c2cccc(C(F)(F)F)c2)N2CC(C)CC(C)C2)c1C (stereo not drawn)
- IC50: 6.14 µM
- IC90: > 10 µM

Compound: COc1ccc(/C=c2\s/c(=C\C(=O)C(C)(C)C)[nH]c2=O)cc1OCc1cccnc1
- IC50: > 10 µM
- IC90: > 10 µM

Compound: O=C1CN(C(=O)CSC2=N/C(=C/c3ccccc3)C(=O)N2c2ccc(F)cc2)c2ccccc2N1
- IC50: > 10 µM
- IC90: > 10 µM

Compound: CCN1CCc2nc(NC(=O)c3nc(-c4cccs4)n(-c4ccc(F)cc4)n3)sc2C1
- IC50: > 10 µM
- IC90: > 10 µM

Compound: Cc1cn2c(/C=C/C(=O)Nc3cccc(Cl)c3N3CCOCC3)c(C)nc2s1
- IC50: > 10 µM
- IC90: > 10 µM

Compound: Cc1cnc(NC(=O)c2ccc(C3SCCS3)cc2)s1
- IC50: 0.273 µM
- IC90: > 10 µM

Compound: O=C(Nc1ccc(-c2nc3ccccc3[nH]2)cc1)c1cnn(-c2ccccc2)c1C1CC1
- IC50: 3.31 µM
- IC90: 3.59 µM

Compound: Cc1cc(C(=O)CN2CCc3sccc3C2)c(C)n1Cc1cccs1
- IC50: 2.21 µM
- IC90: > 10 µM

Compound: CCN(CC)C(CNc1ccc([N+](=O)[O-])cn1)Cc1ccccc1 (stereo not drawn)
- IC50: 7 µM
- IC90: > 10 µM

Compound: O=C(c1ccc(NS(=O)(=O)c2cccs2)cc1)N1CCC(c2c[nH]c3ccccc23)CC1
- IC50: > 10 µM
- IC90: > 10 µM
